The nature of this data set: Human HepG2 cell viability assay in 384 well format. The class given is toxicity, cell-based. Also on record: dose 125 nL, time 70.5 hour; concentration not given beside the values. As to conditions: HepG2 cells, read-out: Inhibition.
With `CN1C[C@H](O)[C@]2(CCN(C(=O)COc3ccccc3)C2)S1(=O)=O`, the cytotoxicity at 70.5 h is -5.4%.

Take `CN1C[C@@H](O)[C@]2(CCN(C(=O)c3ccccc3)C2)S1(=O)=O`: the cytotoxicity at 70.5 h was -7.54%.

For `CN1C[C@@H](O)[C@]2(CCN(C(=O)OCc3ccccc3)C2)S1(=O)=O`, the cytotoxicity at 70.5 h is -10.5%.

As for `CNC(=O)CC1c2cccnc2C(=O)N1Cc1ccccc1` (configuration not stated), the cytotoxicity at 70.5 h is -4.81%.

Turning to `NC(=O)CC1c2cccnc2C(=O)N1Cc1ccccc1` (configuration not stated), the cytotoxicity at 70.5 h was -6.46%.

`CCCC(O)CN1CCC(=O)N(CCOC)Cc2ccccc21` (configuration not stated): the cytotoxicity at 70.5 h is -10.1%.

As to `CN1Cc2ccccc2N(CC(O)C(F)(F)F)CCC1=O` (configuration not stated), the cytotoxicity at 70.5 h was -6.68%.

Take `CN1Cc2cc(F)ccc2N(CC(O)C(F)(F)F)CCC1=O` (configuration not stated): the cytotoxicity at 70.5 h turned out to be 11.8%.

Take `O=C1CCNc2ccc(F)cc2CN1Cc1ccccc1`: the cytotoxicity at 70.5 h stood at 2.31%.

As for `O=C1CCNc2ccc(F)cc2CN1Cc1ccco1`, the cytotoxicity at 70.5 h stood at 2.21%.

Consider `O=C1CCNc2ccccc2CN1Cc1ccco1`, for which the cytotoxicity at 70.5 h was -6.23%.

As for `COc1ccc2c(c1)CN(C)C(=O)CCN2CC(O)C(C)(C)C` (configuration not stated), the cytotoxicity at 70.5 h was -6.98%.

Turning to `O=C1CN(C(=O)OCc2ccccc2)CC(O)CN1Cc1ccco1` (configuration not stated), the cytotoxicity at 70.5 h is 12.1%.

`COc1ccccc1C(=O)N1CC(=O)N(Cc2ccco2)CC(O)C1` (configuration not stated): the cytotoxicity at 70.5 h was -12.4%.

Consider `CC(C)COC(=O)N1CC(=O)N(Cc2ccco2)CC(O)C1` (configuration not stated), for which the cytotoxicity at 70.5 h is -3.84%.

In the case of `CCCC1CN(CCOc2ccccc2)C(=O)c2cccnc2O1` (configuration not stated), the cytotoxicity at 70.5 h is 4.28%.

As to `CC(C)CN1C[C@H](COCc2ccccc2)Oc2ncccc2C1=O`, the cytotoxicity at 70.5 h turned out to be 23.1%.

Consider `CNC(=O)[C@@H]1[C@@H](OC(=O)Nc2ccccc2)C(=O)N(C)C12CCNCC2`, for which the cytotoxicity at 70.5 h is -2.76%.

`CCS(=O)(=O)N1CCC(OC)c2ccccc2N(CC(=O)NC)C(=O)C1` (configuration not stated): the cytotoxicity at 70.5 h was -1.92%.

Take `OCC1N(Cc2ccco2)[C@H]2CC[C@]1(O)CC2` (some centres not stated): the cytotoxicity at 70.5 h is -9.15%.

As for `COCC1N(C(=O)c2ccc3c(c2)OCCCO3)[C@H]2CC[C@]1(O)CC2` (some centres not stated), the cytotoxicity at 70.5 h is -6.94%.

For the compound `CCOC(=O)C1CC2(CCOCC2)N2CCC(=O)N12` (configuration not stated), the cytotoxicity at 70.5 h is -6.97%.

In the case of `O=S1(=O)c2ccccc2C(O)CN1CCO` (configuration not stated), the cytotoxicity at 70.5 h was -5.7%.

Regarding `CCOC(=O)[C@@H]1CN2CCNC[C@@H]2[C@H]1c1ccccc1`, the cytotoxicity at 70.5 h was -7.39%.

As for `CCOC(=O)[C@@H]1[C@@H](c2ccccc2)CN2CCN(C(=O)N(C)C)C[C@H]12`, the cytotoxicity at 70.5 h is -5.43%.

Consider `CCOC(=O)[C@@H]1[C@H]2CN(C(=O)OC)CCN2C[C@H]1c1ccccc1`, for which the cytotoxicity at 70.5 h is -5.21%.

As to `CCCC(O)CN1CCC(=O)N(Cc2ccccc2)Cc2ccccc21` (configuration not stated), the cytotoxicity at 70.5 h stood at 2.6%.

`COCC(O)CN1CCC(=O)N(Cc2ccco2)Cc2ccccc21` (configuration not stated): the cytotoxicity at 70.5 h is 26.6%.

As to `COc1ccc(CN2CC(O)CN(C(=O)CC(C)C)CC2=O)cc1` (configuration not stated), the cytotoxicity at 70.5 h is 4.85%.

Turning to `CC(O)CN1CC(C)(C)CN(C(=O)CCc2ccccc2)CC1=O` (configuration not stated), the cytotoxicity at 70.5 h is -2.42%.

For `CN1CC(C)(C)CN(C(=O)CCc2ccccc2)CC1=O`, the cytotoxicity at 70.5 h is -1.8%.

Take `Cc1ccc(CN2CC(O)CN(C(=O)C3CC3)CC2=O)cc1` (configuration not stated): the cytotoxicity at 70.5 h was -5.26%.

Take `COc1cccc(OC)c1C(=O)N1CC(=O)N(C2CCC2)CC(O)C1` (configuration not stated): the cytotoxicity at 70.5 h is -0.00128%.

In the case of `CCOc1ccccc1C(=O)N1CC(=O)N(C2CCC2)CC(O)C1` (configuration not stated), the cytotoxicity at 70.5 h is -4.81%.

`COc1ccc(C(=O)N2CC(=O)N(C3CCC3)CC(O)C2)cc1OC` (configuration not stated): the cytotoxicity at 70.5 h was -5.23%.

In the case of `O=C1CN(C(=O)c2cccc(C(F)(F)F)c2)CC(O)CN1CC1CC1` (configuration not stated), the cytotoxicity at 70.5 h was determined as 20.9%.

`CCN1CC(O)CN(C(=O)c2cccc(C(F)(F)F)c2)CC1=O` (configuration not stated): the cytotoxicity at 70.5 h is -4.06%.

Take `CCN1CC(O)CN(C(=O)c2ccc(SC)cc2)CC1=O` (configuration not stated): the cytotoxicity at 70.5 h is -4.25%.

With `N#CCCN1CC(O)CN(C(=O)c2cccc(C(F)(F)F)c2)CC1=O` (configuration not stated), the cytotoxicity at 70.5 h is -1.43%.

`COC1CCN(C(=O)NCC(N)=O)CC(=O)N(C)c2ccccc21` (configuration not stated): the cytotoxicity at 70.5 h is -5.28%.

In the case of `O=C(C1CC1)N1CCN2C[C@@H](CO)[C@H](c3ccccc3)[C@H]2C1`, the cytotoxicity at 70.5 h came to 8.58%.

Take `NC(=O)[C@@H]1CN2CCN(C(=O)C3CC3)C[C@@H]2[C@H]1c1ccccc1`: the cytotoxicity at 70.5 h is -2.24%.

On to `CNC(=O)[C@@H]1[C@@H](c2ccccc2)CN2CCN(Cc3ccccn3)C[C@H]12`, for which the cytotoxicity at 70.5 h was -7.27%.

In the case of `O=C(C1CC1)N1CCN2C[C@H](c3ccccc3)[C@@H](CO)[C@H]2C1`, the cytotoxicity at 70.5 h is -5.2%.

Take `CC(C)COC(=O)N1CC(=O)N(CCc2ccccc2)CC(O)C1` (configuration not stated): the cytotoxicity at 70.5 h stood at 25.4%.

In the case of `COc1ccc(CN2CC(O)CN(C(=O)OCC(C)C)CC2=O)cc1` (configuration not stated), the cytotoxicity at 70.5 h was found to be 14.8%.

As to `COc1cccc(CN2CC(O)CN(C(=O)C(C)(C)C)CC2=O)c1OC` (configuration not stated), the cytotoxicity at 70.5 h turned out to be 50.4%.

As to `CC(C)COC(=O)N1CC(=O)N(Cc2ccc(Cl)cc2)CC(O)C1` (configuration not stated), the cytotoxicity at 70.5 h was -3.08%.

Consider `COc1ccccc1CN1CC(O)CN(S(=O)(=O)C(C)C)CC1=O` (configuration not stated), for which the cytotoxicity at 70.5 h is 16.7%.

In the case of `CCOC(=O)N1CC(=O)N(CCc2ccccc2)CC(O)C1` (configuration not stated), the cytotoxicity at 70.5 h was 5.59%.

For `COC1CN(C(=O)C2CC2)CCC(=O)N(C)c2ccccc21` (configuration not stated), the cytotoxicity at 70.5 h came out at 2.56%.

Consider `COC1CN(C(=O)CC(C)C)CCC(=O)N(C)c2ccccc21` (configuration not stated), for which the cytotoxicity at 70.5 h is -7.01%.

As to `COC1CN(C(=O)COC(C)=O)CCC(=O)N(C)c2ccccc21` (configuration not stated), the cytotoxicity at 70.5 h is -5.15%.

In the case of `COC1CN(C(=O)CC2CCCC2)CCC(=O)N(C)c2ccccc21` (configuration not stated), the cytotoxicity at 70.5 h was found to be 21.5%.

Consider `COC1CN(C(=O)NCC(N)=O)CCC(=O)N(C)c2ccccc21` (configuration not stated), for which the cytotoxicity at 70.5 h is -7.69%.

Regarding `COCC(=O)N1CCC(=O)N(C2CCCC2)Cc2cc(F)ccc21`, the cytotoxicity at 70.5 h is -5.37%.

In the case of `O=C(O)CCCC(=O)N1CCC(c2noc3cc(F)ccc23)CC1`, the cytotoxicity at 70.5 h is -13.8%.

Consider `O=C(NC1CCC1)[C@H]1C[C@@H]2CN(S(=O)(=O)c3ccccc3)C[C@H]1O2`, for which the cytotoxicity at 70.5 h was -1.64%.

As to `CC(C)OC[C@H]1CCC[C@]12CN(S(=O)(=O)C1CC1)CCO2`, the cytotoxicity at 70.5 h was -0.771%.

On to `COCCN1CCc2ncc(CN(C)C)n2CC1`, for which the cytotoxicity at 70.5 h was -0.491%.

Consider `Cc1cnc(N2C[C@@H]3[C@@H](C2)OCC(=O)N3C)nc1`, for which the cytotoxicity at 70.5 h was -8.76%.

As to `COCCN1CCc2ncc(CNc3cc(N(C)C)ncn3)n2CC1`, the cytotoxicity at 70.5 h is -8.47%.

Consider `Cc1nc(CN2CCc3nc(NC(C)C)nc(C)c3C2)cs1`, for which the cytotoxicity at 70.5 h is -6.71%.

Take `CN(C)CCN1C(=O)CO[C@@H]2CN(c3ncc(F)cn3)C[C@H]21`: the cytotoxicity at 70.5 h is -6.29%.

With `CCc1nnc(CN(C)C2CCCN(Cc3noc(C4CC4)n3)C2)o1` (configuration not stated), the cytotoxicity at 70.5 h worked out at 12.1%.

Regarding `Cc1cc(CN2CCC(N(C)Cc3noc(C4CC4)n3)C2)no1` (configuration not stated), the cytotoxicity at 70.5 h amounted to 13%.

For the compound `CC(C(=O)NCCN1CCN(C)CC1)n1cncn1` (configuration not stated), the cytotoxicity at 70.5 h is -7.19%.

Consider `CC1CCN(CCNC(=O)C(C)n2cncn2)CC1` (configuration not stated), for which the cytotoxicity at 70.5 h is -2.14%.

As to `Cc1cc(C)n(CC2CCCN2CC(=O)Nc2cc(C(C)C)no2)n1` (configuration not stated), the cytotoxicity at 70.5 h amounted to 14.2%.

Turning to `COc1ccccc1CNC(=O)CNCCn1cc(C)cn1`, the cytotoxicity at 70.5 h was -13.5%.

Consider `c1ccc(Cc2noc(CN3CCc4cncnc4C3)n2)cc1`, for which the cytotoxicity at 70.5 h is -9.62%.

For the compound `CCC(O)CN1CCN(C(=O)CCc2c(C)noc2Cl)CC1` (configuration not stated), the cytotoxicity at 70.5 h is -12.7%.

`Cc1cnn(C2CN(CC(=O)NCC(C)C)C2)c1`: the cytotoxicity at 70.5 h was -13.6%.

Take `CS(=O)(=O)c1ccc(C(=O)NCCNc2ncccn2)cc1`: the cytotoxicity at 70.5 h is -12.6%.

As for `Cc1csc(CNC(=O)N2CCN(Cc3ccco3)CC2)n1`, the cytotoxicity at 70.5 h was -5.98%.

`Cc1csc(CNC(=O)N2CCN(Cc3cc(C)on3)CC2)n1`: the cytotoxicity at 70.5 h is -3.55%.

For `COc1cc(CCC(=O)NC(C)C)ccc1OCC(F)(F)F`, the cytotoxicity at 70.5 h was -18.5%.

Consider `O=C(Cc1ccc2c(c1)CCC2)NCCNc1cnccn1`, for which the cytotoxicity at 70.5 h was -16%.

Regarding `Cc1cc(CN2CCN(C(=O)NCc3c(C)noc3C)CC2)on1`, the cytotoxicity at 70.5 h is -13.9%.

For the compound `CN(Cc1cccc(OC(F)F)c1)Cc1nc2c(cnn2C)c(=O)[nH]1`, the cytotoxicity at 70.5 h is 2.1%.

For `O=C(CN1C=Nc2ccccc2S1(=O)=O)NCc1ccccc1F`, the cytotoxicity at 70.5 h was -9.4%.

For `CN(Cc1cccc(C(N)=O)c1)Cc1nc2c(cnn2C)c(=O)[nH]1`, the cytotoxicity at 70.5 h was -15.8%.

As for `O=C(CN1C=Nc2ccccc2S1(=O)=O)NCc1ccccc1`, the cytotoxicity at 70.5 h was -9.5%.

As to `CC(C)(C)NC(=O)NC(=O)CN1C=Nc2ccccc2S1(=O)=O`, the cytotoxicity at 70.5 h is -8.6%.

As to `CN(Cc1cccc(C#N)c1)Cc1nc2c(cnn2C)c(=O)[nH]1`, the cytotoxicity at 70.5 h is -19%.

Consider `Cc1noc(Cl)c1CCC(=O)N1CCN(Cc2ccncc2)CC1`, for which the cytotoxicity at 70.5 h was -4.95%.

Regarding `COc1cc(CCC(=O)NCC2CC2)ccc1OCC(F)(F)F`, the cytotoxicity at 70.5 h was -11.6%.

With `Cc1noc(Cl)c1CCC(=O)N1CCN(CC(C)(C)O)CC1`, the cytotoxicity at 70.5 h worked out at 7.84%.

Regarding `Cc1cnn(CCNCC(=O)NCCOc2ccc(Cl)cc2)c1`, the cytotoxicity at 70.5 h was -13%.

For `O=C(CN1C=Nc2ccccc2S1(=O)=O)NCCCc1ccccc1`, the cytotoxicity at 70.5 h is -12.6%.

Take `Cc1noc(Cl)c1CCC(=O)N1CCN(c2cnccn2)CC1`: the cytotoxicity at 70.5 h is -16.7%.

Consider `c1cnc(N2CCCn3nnc(COCC4CC4)c3C2)nc1`, for which the cytotoxicity at 70.5 h was -1.29%.

In the case of `Cn1ccc(CN2CCC3(CC2)CC(Nc2cnccn2)CO3)n1` (configuration not stated), the cytotoxicity at 70.5 h is -1.03%.

On to `COCCN1CCC2(CC1)CC(Nc1ccc(C)nn1)CO2` (configuration not stated), for which the cytotoxicity at 70.5 h was -2.32%.

As to `CCCS(=O)(=O)N1CCC2(CC1)CC(N1CCCC1)c1ccccc12` (configuration not stated), the cytotoxicity at 70.5 h was -8.52%.

Turning to `CN(C)CCN1C(=O)CC[C@@H]2[C@H]1CCN2C(=O)c1ccc(C#N)cc1`, the cytotoxicity at 70.5 h is -7.83%.

Regarding `CN(C)Cc1noc2c1CN(Cc1ccsc1)CC2`, the cytotoxicity at 70.5 h is -5.59%.
